For test [1], the target named is T1, glutathione-S-transferase (GST) tagged LXRalpha LBD (ligand binding domain) (Homo sapiens, UniProt Q13133).
T1 construct: purchased Invitrogen pv4655
T1 sequence (Q13133 209-447 limits assumed): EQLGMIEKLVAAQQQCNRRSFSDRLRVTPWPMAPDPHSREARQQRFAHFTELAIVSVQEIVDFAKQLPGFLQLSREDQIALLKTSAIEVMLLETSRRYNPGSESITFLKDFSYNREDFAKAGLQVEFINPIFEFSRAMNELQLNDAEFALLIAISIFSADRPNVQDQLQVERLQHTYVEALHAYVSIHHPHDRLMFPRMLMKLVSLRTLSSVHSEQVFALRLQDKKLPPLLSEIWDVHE
Kind of test: LanthaScreen TR-FRET Liver X Receptor Coactivator Assay, co-activator recruitment to LXRalpha LBD. Type of test: biochemical. As to conditions: for Emax: efficacy at max dose, in relation to reference dual agonist T0901317, read-out: LXR alpha Activity @ max dose (%); for EC50 / LXR alpha IP (nM): potency (Inflection Point, IP), co-activator recruitment to LXRalpha LBD, in relation to T0901317; for EC50: read-out: LXR alpha IP. The gist of the method: (§1)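 LXRα- or LXRβ-LBD protein was added to test compounds, then fluorescein-labelled coactivator peptide plus Tb-anti-GST antibody; after room-temperature incubation, TR-FRET was read. Inflection point (IP) and Emax were expressed relative to the dual agonist reference T0901317.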
(In TR-FRET formats the signal depends on donor and acceptor labels being close together.)

Test [2] deals with T2, glutathione-S-transferase (GST) tagged LXRbeta LBD (ligand binding domain) (Homo sapiens, UniProt P55055).
T2 construct: purchased Invitrogen pv4658.pps
T2 sequence (P55055 222-460 limits assumed): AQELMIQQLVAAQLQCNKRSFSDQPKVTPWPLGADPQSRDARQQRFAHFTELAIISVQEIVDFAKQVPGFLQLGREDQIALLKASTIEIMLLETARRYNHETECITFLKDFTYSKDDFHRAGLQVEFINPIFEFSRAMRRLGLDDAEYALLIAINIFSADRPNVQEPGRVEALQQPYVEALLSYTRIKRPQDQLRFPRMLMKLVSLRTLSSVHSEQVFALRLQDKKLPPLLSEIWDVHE
Kind of test: LanthaScreen TR-FRET Liver X Receptor Coactivator Assay, co-activator recruitment to LXRbeta LBD. Type of test: biochemical. As to conditions: for Emax: efficacy at max dose, in relation to reference dual agonist T0901317, read-out: LXR beta Activity @ max dose (%); for EC50: potency (Inflection Point, IP), co-activator recruitment to LXRbeta LBD, in relation to T0901317, read-out: LXR beta IP. The gist of the method: as §1

Take `CN(C)C(=O)c1ccc(N2CCC(CC3CCN(C(=O)C(O)(c4cc(F)cc(Cl)c4)C(F)(F)F)CC3)CC2)nc1Cl` (centres unmarked) [Example 7-109, 2-chloro-6-[4-({1-[2-(3-chloro-5-fluorophenyl)-3,3,3-trifluoro-2-hydroxypropanoyl]piperidin-4-yl}methyl)piperidin-1-yl]-N,N-dimethyl-pyridine-3-carboxamide]: the values for the Emax in test [1] and in test [2] were 52% and 107%, respectively. Besides, the EC50 came out at 51 nM in test [1] and 4 nM in test [2].
Take `CN(C)C(=O)c1ccc(N2CCC(CC3CCN(C(=O)[C@@](N)(c4ccccc4)C(F)(F)F)CC3)CC2)nc1Cl` [Example 7-110, 6-[4-({1-[(2S)-2-amino-3,3,3-trifluoro-2-phenylpropanoyl]piperidin-4-yl}methyl)piperidin-1-yl]-2-chloro-N,N-dimethylpyridine-3-carboxamide]: in test [1], the Emax stood at 10% and the “LXR alpha IP (nM)” value is reported as “NO IP”. In test [2], the Emax came to 54% and the EC50 was 118 nM.
As for `CN(C)C(=O)c1ccc(N2CCC(CC3CCN(C(=O)[C@](N)(c4ccccc4)C(F)(F)F)CC3)CC2)nc1Cl` [Example 7-111, 6-[4-({1-[(2R)-2-amino-3,3,3-trifluoro-2-phenylpropanoyl]piperidin-4-yl}methyl)piperidin-1-yl]-2-chloro-N,N-dimethylpyridine-3-carboxamide], in test [1], the Emax amounted to 49% and the EC50 was found to be 1750 nM. In addition, in test [2], the Emax came to 151% and the EC50 was determined as 49 nM.
On the same counts, the results for `CN(C)C(=O)c1ccc(N2CCC(CC3CCN(C(=O)[C@](O)(c4cc(F)cc(Cl)c4)C(F)(F)F)CC3)CC2)nc1Cl` [Example 7-112, 2-chloro-6-[4-({1-[(2R)-2-(3-chloro-5-fluorophenyl)-3,3,3-trifluoro-2-hydroxypropanoyl]piperidin-4-yl}methyl)piperidin-1-yl]-N,N-dimethylpyridine-3-carboxamide] are 45%, 65 nM, 96% and 3 nM.
For `CN(C)C(=O)c1ccc(N2CCC(CC3CCN(C(=O)[C@@](O)(c4cc(F)cc(Cl)c4)C(F)(F)F)CC3)CC2)nc1Cl` [Example 7-113, 2-chloro-6-[4-({1-[(2S)-2-(3-chloro-5-fluorophenyl)-3,3,3-trifluoro-2-hydroxypropanoyl]piperidin-4-yl}methyl)piperidin-1-yl]-N,N-dimethylpyridine-3-carboxamide] the same measures were 31%, 1610 nM, 125% and 34 nM.
As to `COc1cccc([C@@](N)(C(=O)N2CCC(CC3CCN(c4ccc(C(=O)N(C)C)c(Cl)n4)CC3)CC2)C(F)(F)F)c1` [Example 7-114, 6-[4-({1-[(2R)-2-amino-3,3,3-trifluoro-2-(3-methoxyphenyl)propanoyl]piperidin-4-yl}methyl)piperidin-1-yl]-2-chloro-N,N-dimethylpyridine-3-carboxamide], in test [1], the Emax was 0% and the “LXR alpha IP (nM)” value is “NO IP”. Moreover, in test [2], the Emax came out at 21% and the EC50 came out at 236 nM.
Take `CN(C)C(=O)c1ccc(N2CCC(CC3CCN(C(=O)[C@](O)(c4cccc(OC(F)F)c4)C(F)(F)F)CC3)CC2)nc1Cl` [Example 7-115, 2-chloro-6-{4-[(1-{(2R)-2-[3-(difluoromethoxy)phenyl]-3,3,3-trifluoro-2-hydroxypropanoyl}piperidin-4-yl)methyl]piperidin-1-yl}-N,N-dimethylpyridine-3-carboxamide]: in test [1], the Emax was 17% and the EC50 stood at 251 nM. Further, in test [2], the Emax is 60% and the EC50 stood at 5 nM.
As to `CNC(=O)c1ccc(N2CCC(CC3CCN(C(=O)[C@](O)(c4cc(Cl)cc(Cl)c4)C(F)(F)F)CC3)CC2)cc1Cl` [Example 7-116, 2-chloro-4-[4-({1-[(2R)-2-(3,5-dichlorophenyl)-3,3,3-trifluoro-2-hydroxypropanoyl]piperidin-4-yl}methyl)piperidin-1-yl]-N-methylbenzamide], in test [1], the Emax turned out to be 9% and the “LXR alpha IP (nM)” value is reported as “NO IP”. In test [2], the Emax is 76% and the EC50 stood at 13 nM.
On the same counts, the results for `CNC(=O)c1ccc(N2CCC(CC3CCN(C(=O)[C@](O)(c4cc(Cl)cc(OC)c4)C(F)(F)F)CC3)CC2)cc1Cl` [Example 7-117, 2-chloro-4-[4-({1-[(2R)-2-(3-chloro-5-methoxyphenyl)-3,3,3-trifuoro-2-hydroxypropanoyl]piperidin-4-yl}methyl)piperidin-1-yl]-N-methylbenzamide] are 0%, “NO IP”, 35% and 25 nM.
In the case of `CNC(=O)c1ccc(N2CCC(CC3CCN(C(=O)[C@](O)(c4cc(F)cc(OC)c4)C(F)(F)F)CC3)CC2)cc1Cl` [Example 7-118, 2-chloro-N-methyl-4-[4-({1-[(2R)-3,3,3-trifluoro-2-(3-fluoro-5-methoxyphenyl)-2-hydroxypropanoyl]piperidin-4-yl}methyl)piperidin-1-yl]benzamide], in test [1], the Emax was 20% and the EC50 turned out to be 243 nM. Further, in test [2], the Emax came to 98% and the EC50 came to 7 nM.
On the same counts, the results for `CNC(=O)c1ccc(N2CCC(CC3CCN(C(=O)[C@](O)(c4cccc(Br)c4)C(F)(F)F)CC3)CC2)cc1Cl` [Example 7-119, 4-[4-({1-[(2R)-2-(3-bromophenyl)-3,3,3-trifluoro-2-hydroxypropanoyl]piperidin-4-yl}methyl)piperidin-1-yl]-2-chloro-N-methyl-benzamide] are 32%, 182 nM, 82% and 12 nM.
As for `CCc1cccc([C@@](O)(C(=O)N2CCC(CC3CCN(c4ccc(C(=O)NC)c(Cl)c4)CC3)CC2)C(F)(F)F)c1` [Example 7-120, 2-chloro-4-[4-({1-[(2R)-2-(3-ethylphenyl)-3,3,3-trifluoro-2-hydroxypropanoyl]piperidin-4-yl}methyl)piperidin-1-yl]-N-methylbenzamide], in test [1], the Emax worked out at 12% and the “LXR alpha IP (nM)” value was “NO IP”. In test [2], the Emax was found to be 60% and the EC50 came out at 22 nM.
`CNC(=O)c1ccc(N2CCC(CC3CCN(C(=O)[C@](O)(c4cccc(OC(C)C)c4)C(F)(F)F)CC3)CC2)cc1Cl` [Example 7-121, 2-chloro-N-methyl-4-{4-[(1-{(2R)-3,3,3-trifluoro-2-hydroxy-2-[3-(1-methylethoxy)phenyl]propanoyl}piperidin-4-yl)methyl]piperidin-1-yl}benzamide]: in test [1], the Emax stood at 11% and the “LXR alpha IP (nM)” value is “NO IP”. Moreover, in test [2], the Emax is 69% and the EC50 came to 21 nM.
For `CNC(=O)c1ccc(N2CCC(CC3CCN(C(=O)C(O)(c4cc(F)cc(F)c4)C(F)(F)F)CC3)CC2)cc1Cl` (centres unmarked) [Example 7-122, 2-chloro-4-[4-({1-[2-(3,5-difluorophenyl)-3,3,3-trifluoro-2-hydroxypropanoyl]piperidin-4-yl}methyl)piperidin-1-yl]-N-methylbenzamide], the values for the Emax in test [1] and in test [2] were 54% and 104%, respectively. Further, the EC50 is 94 nM in test [1] and 9 nM in test [2].
On the same counts, the results for `CNC(=O)c1ccc(N2CCC(CC3CCN(C(=O)[C@](O)(c4cccc(C(C)C)c4)C(F)(F)F)CC3)CC2)cc1Cl` [Example 7-123, 2-chloro-N-methyl-4-{4-[(1-{(2R)-3,3,3-trifluoro-2-hydroxy-2-[3-(1-methylethyl)phenyl]propanoyl}piperidin-4-yl)methyl]piperidin-1-yl}benzamide] are 21%, 73%, 307 nM and 17 nM.
For `CNC(=O)c1ccc(N2CCC(CC3CCN(C(=O)[C@](O)(c4cccc(OC)c4)C(F)(F)C(F)(F)F)CC3)CC2)cc1Cl` [Example 7-124, 2-chloro-N-methyl-4-[4-({1-[(2R)-3,3,4,4,4-pentafluoro-2-hydroxy-2-(3-methoxyphenyl)butanoyl]piperidin-4-yl}methyl)piperidin-1-yl]benzamide] the same measures were 36%, 96%, 482 nM and 28 nM.
For `CNC(=O)c1ccc(N2CCC(CC3CCN(C(=O)[C@](O)(c4cccc(OC(F)(F)F)c4)C(F)(F)F)CC3)CC2)cc1Cl` [Example 7-125, 2-chloro-N-methyl-4-{4-[(1-{(2R)-3,3,3-trifluoro-2-hydroxy-2-[3-(trifluoromethoxy)phenyl]propanoyl}piperidin-4-yl)methyl]piperidin-1-yl}benzamide] the same measures were 24%, 79%, 740 nM and 37 nM.

These data come from patent publication US10752587B2, “Homobispiperidinyl derivatives as liver X receptor beta agonists, compositions and their use” (Merck Sharp & Dohme Corp., priority 2015, dated 2020).
